≈ marks a conversion by molar mass, not a printed value.

Holding throughout (assay type): functional
The subject of assay [1] is Streptococcus pneumoniae. The assay can be described thus: Antibacterial activity against Streptococcus pneumoniae 3579 expressing erm gene by NCCLS method.
The subject of the next assay is Moraxella catarrhalis. The assay can be described thus: Antibacterial activity against Moraxella catarrhalis 8176 by NCCLS method.
The next assay concerns Streptococcus pyogenes. Nature of the assay: Antibacterial activity against Streptococcus pyogenes 19615 by NCCLS method.
Another assay relates to Haemophilus influenzae. The assay can be described thus: Antibacterial activity against Haemophilus influenzae 38 by NCCLS method.
Assay [2] deals with Streptococcus pneumoniae. Nature of the assay: Antibacterial activity against Streptococcus pneumoniae 994 expressing mef gene by NCCLS method.
The subject of assay [3] is Streptococcus pneumoniae. Nature of the assay: Antibacterial activity against Streptococcus pneumoniae 49619 by NCCLS method.
Assay [4] relates to Streptococcus pneumoniae. The assay can be described thus: Antibacterial activity against Streptococcus pneumoniae 6303 by NCCLS method.
Assay [5] concerns Streptococcus pneumoniae. The assay can be described thus: Antibacterial activity against Streptococcus pneumoniae by NCCLS method.
Assay [6] concerns Streptococcus pneumoniae. The assay can be described thus: Antibacterial activity against telethromycin-resistant Streptococcus pneumoniae 217 expressing erm gene by NCCLS method.
Assay [7] has as its system Streptococcus pneumoniae. The assay can be described thus: Antibacterial activity against telethromycin-resistant Streptococcus pneumoniae 3489 expressing erm gene by NCCLS method.
Assay [8] concerns Streptococcus pneumoniae. The assay can be described thus: Antibacterial activity against telethromycin-resistant Streptococcus pneumoniae 757 expressing erm gene by NCCLS method.
The test system of assay [9] is Streptococcus pneumoniae. Nature of the assay: Antibacterial activity against telethromycin-resistant Streptococcus pneumoniae 3488 expressing erm gene by NCCLS method.
Assay [10] relates to Streptococcus pneumoniae. The assay can be described thus: Antibacterial activity against telethromycin-resistant Streptococcus pneumoniae 162 expressing erm gene by NCCLS method.
The test system of assay [11] is Streptococcus pneumoniae. The assay can be described thus: Antibacterial activity against telethromycin-resistant Streptococcus pneumoniae 3390 expressing erm gene by NCCLS method.
For assay [12], the system named is Streptococcus pneumoniae. Nature of the assay: Antibacterial activity against telethromycin-resistant Streptococcus pneumoniae 5051 expressing erm gene by NCCLS method.
Assay [13] has as its system Streptococcus pneumoniae. The assay can be described thus: Antibacterial activity against telethromycin-resistant Streptococcus pneumoniae 3271 expressing erm gene by NCCLS method.
For assay [14], the system named is Streptococcus pneumoniae. The assay can be described thus: Antibacterial activity against telethromycin-resistant Streptococcus pneumoniae 5099 expressing erm gene by NCCLS method.
The test system of assay [15] is Streptococcus pneumoniae. Nature of the assay: Antibacterial activity against telethromycin-resistant Streptococcus pneumoniae 2840 expressing erm gene by NCCLS method.
Assay [16] concerns Streptococcus pneumoniae. Nature of the assay: Antibacterial activity against telethromycin-resistant Streptococcus pneumoniae B739 expressing erm gene by NCCLS method.
For assay [17], the system named is Streptococcus pneumoniae. Nature of the assay: Antibacterial activity against telethromycin-resistant Streptococcus pneumoniae AB14 expressing erm gene by NCCLS method.

For the compound `CC[C@H]1OC(=O)[C@H](C)[C@@H](OC(=O)Cc2ccccn2)[C@H](C)[C@@H](O[C@@H]2O[C@H](C)C[C@H](N(C)CC)[C@H]2O)[C@](C)(OC)C[C@@H](C)C(=O)[C@H](C)[C@H]2N(CCCCn3cnc4ncccc43)C(=O)O[C@]12C`, the MIC against Streptococcus pneumoniae [1] turned out to be 0.25 µg/mL (≈ 0.271 µM); in the assay on Moraxella catarrhalis, 0.125 µg/mL (≈ 0.136 µM); against Streptococcus pyogenes, 0.03 µg/mL (≈ 0.0326 µM); against Haemophilus influenzae, 0.06 µg/mL (≈ 0.0651 µM); in the assay with Streptococcus pneumoniae [2], 0.25 µg/mL (≈ 0.271 µM); in the assay with Streptococcus pneumoniae [3], 0.015 µg/mL (≈ 0.0163 µM). The same compound displayed an MIC against Streptococcus pneumoniae [4] of 0.06 µg/mL (≈ 0.0651 µM).

Regarding `CC[C@H]1OC(=O)[C@H](C)[C@@H](OC(=O)Cc2cccnc2)[C@H](C)[C@@H](O[C@@H]2O[C@H](C)C[C@H](N(C)CC)[C@H]2O)[C@](C)(OC)C[C@@H](C)C(=O)[C@H](C)[C@H]2N(CCCCn3cnc(-c4cccnc4)c3)C(=O)O[C@]12C`, the MIC with Streptococcus pneumoniae [1] is 2 µg/mL (≈ 2.11 µM); in the assay with Moraxella catarrhalis, 0.125 µg/mL (≈ 0.132 µM); with Streptococcus pyogenes, 0.03 µg/mL (≈ 0.0317 µM); in the assay with Haemophilus influenzae it was 1 µg/mL (≈ 1.06 µM); with Streptococcus pneumoniae [2], 0.125 µg/mL (≈ 0.132 µM); against Streptococcus pneumoniae [3] it was 0.03 µg/mL (≈ 0.0317 µM). The MIC in the assay on Streptococcus pneumoniae [4] was found to be 0.06 µg/mL (≈ 0.0633 µM).

Consider `CC[C@H]1OC(=O)[C@H](C)[C@@H](O[C@H]2C[C@@](C)(OC)[C@@H](O)[C@H](C)O2)[C@H](C)[C@@H](O[C@@H]2O[C@H](C)C[C@H](N(C)C)[C@H]2O)[C@](C)(OC)C[C@@H](C)C(=O)[C@H](C)[C@@H](O)[C@]1(C)O` [CLARITHROMYCIN], for which the MIC against Streptococcus pneumoniae [5] was 0.25 µg/mL (≈ 0.334 µM); in the assay on Streptococcus pneumoniae [1], 4 µg/mL (≈ 5.35 µM); in the assay on Moraxella catarrhalis, 4 µg/mL (≈ 5.35 µM); in the assay on Streptococcus pyogenes, 0.125 µg/mL (≈ 0.167 µM); in the assay on Haemophilus influenzae it was greater than 16 µg/mL; against Streptococcus pneumoniae [2], 0.5 µg/mL (≈ 0.668 µM). The MIC in the assay with Streptococcus pneumoniae [3] is 0.125 µg/mL (≈ 0.167 µM); against Streptococcus pneumoniae [4] it was 0.25 µg/mL (≈ 0.334 µM).

In the case of `CC[C@H]1OC(=O)[C@H](C)[C@@H](OC(=O)Cc2ccccn2)[C@H](C)[C@@H](O[C@@H]2O[C@H](C)C[C@H](N(C)CC)[C@H]2O)[C@](C)(OC)C[C@@H](C)C(=O)[C@H](C)[C@H]2N(CCCCn3cnc(-c4cccnc4)c3)C(=O)O[C@]12C`, the MIC with Streptococcus pneumoniae [1] was 1 µg/mL (≈ 1.06 µM); against Moraxella catarrhalis, 0.25 µg/mL (≈ 0.264 µM); in the assay with Streptococcus pyogenes, 0.06 µg/mL (≈ 0.0633 µM); in the assay on Haemophilus influenzae, 1 µg/mL (≈ 1.06 µM); in the assay with Streptococcus pneumoniae [2] it was 0.06 µg/mL (≈ 0.0633 µM); in the assay on Streptococcus pneumoniae [3], 0.015 µg/mL (≈ 0.0158 µM). Moreover, the MIC against Streptococcus pneumoniae [4] was determined as 0.06 µg/mL (≈ 0.0633 µM).

For `C=CCN(C)[C@H]1C[C@@H](C)O[C@@H](O[C@@H]2[C@@H](C)[C@H](OC(=O)Cc3ccccn3)[C@@H](C)C(=O)O[C@H](CC)[C@@]3(C)OC(=O)N(CCCCn4cnc5cccnc54)[C@@H]3[C@@H](C)C(=O)[C@H](C)C[C@@]2(C)OC)[C@@H]1O`, the MIC against Streptococcus pneumoniae [1] is 0.5 µg/mL (≈ 0.536 µM); in the assay with Moraxella catarrhalis it was 0.125 µg/mL (≈ 0.134 µM); against Streptococcus pyogenes, 0.125 µg/mL (≈ 0.134 µM); in the assay with Haemophilus influenzae it was less than 0.06 µg/mL; in the assay with Streptococcus pneumoniae [2], 0.5 µg/mL (≈ 0.536 µM); in the assay with Streptococcus pneumoniae [3] it was 0.06 µg/mL (≈ 0.0643 µM). Further, the MIC with Streptococcus pneumoniae [4] came to 0.125 µg/mL (≈ 0.134 µM).

`CC[C@H]1OC(=O)[C@H](C)[C@@H](OC(=O)Cc2ccccn2)[C@H](C)[C@@H](O[C@@H]2O[C@H](C)C[C@H](N(C)CC)[C@H]2O)[C@](C)(OC)C[C@@H](C)C(=O)[C@H](C)[C@H]2N(CCCCn3cnc(-c4ccc(N)nc4)c3)C(=O)O[C@]12C`: the MIC in the assay with Streptococcus pneumoniae [1] stood at 0.25 µg/mL (≈ 0.26 µM); with Moraxella catarrhalis, 0.25 µg/mL (≈ 0.26 µM); in the assay on Streptococcus pyogenes it was 0.06 µg/mL (≈ 0.0624 µM); with Haemophilus influenzae, 0.125 µg/mL (≈ 0.13 µM); in the assay on Streptococcus pneumoniae [2], 0.125 µg/mL (≈ 0.13 µM); with Streptococcus pneumoniae [3], 0.06 µg/mL (≈ 0.0624 µM). The same compound showed an MIC in the assay with Streptococcus pneumoniae [4] of 0.06 µg/mL (≈ 0.0624 µM).

In the case of `CC[C@H]1OC(=O)[C@H](C)C(=O)[C@H](C)[C@@H](O[C@@H]2O[C@H](C)C[C@H](N(C)C)[C@H]2O)[C@](C)(OC)C[C@@H](C)C(=O)[C@H](C)[C@H]2N(CCCCn3cnc(-c4cccnc4)c3)C(=O)O[C@]12C` [TELITHROMYCIN], the MIC against Streptococcus pneumoniae [6] worked out at 4 µg/mL (≈ 4.93 µM); with Streptococcus pneumoniae [7] it was 64 µg/mL (≈ 78.8 µM); with Streptococcus pneumoniae [1], 0.25 µg/mL (≈ 0.308 µM); with Streptococcus pneumoniae [8], 32 µg/mL (≈ 39.4 µM); in the assay with Moraxella catarrhalis, 0.25 µg/mL (≈ 0.308 µM); with Streptococcus pyogenes, 0.03 µg/mL (≈ 0.0369 µM). The MIC worked out at 1 µg/mL (≈ 1.23 µM) in the assay on Haemophilus influenzae; 8 µg/mL (≈ 9.85 µM) in the assay with Streptococcus pneumoniae [9]; 0.25 µg/mL (≈ 0.308 µM) against Streptococcus pneumoniae [2]; 0.06 µg/mL (≈ 0.0739 µM) in the assay on Streptococcus pneumoniae [3]; 64 µg/mL (≈ 78.8 µM) against Streptococcus pneumoniae [10]; 8 µg/mL (≈ 9.85 µM) with Streptococcus pneumoniae [11]. In addition, the MIC is 4 µg/mL (≈ 4.93 µM) against Streptococcus pneumoniae [12]; 64 µg/mL (≈ 78.8 µM) against Streptococcus pneumoniae [13]; 8 µg/mL (≈ 9.85 µM) against Streptococcus pneumoniae [14]; 64 µg/mL (≈ 78.8 µM) against Streptococcus pneumoniae [15]; 64 µg/mL (≈ 78.8 µM) with Streptococcus pneumoniae [16]; 8 µg/mL (≈ 9.85 µM) against Streptococcus pneumoniae [17]. The compound further gave an MIC against Streptococcus pneumoniae [4] of 0.03 µg/mL (≈ 0.0369 µM).

The record behind these values is ChEMBL document CHEMBL1933046, “Synthesis and antibacterial activity of a novel series of acylides active against community acquired respiratory pathogens” (2012).
